Measurements: the NIST ThermoML archive (doi:10.1007/s10765-006-0114-6)
± gives the expanded uncertainty stated by the source.

Conditions: Fluid (supercritical or subcritical phases), vibrating plate method

[Ar] [argon]
Conditions | mass density [kg/m3] | viscosity [mPa·s]
323.16 K, 7006 kPa | 107.17 ± 1 | 0.02744 ± 0.00086
323.16 K, 13877 kPa | 213.45 ± 1.2 | 0.02979 ± 0.00088
323.16 K, 20899 kPa | 316.3 ± 1.3 | 0.03257 ± 0.00094
323.16 K, 27679 kPa | 408.2 ± 1.4 | 0.0352 ± 0.001
323.16 K, 34459 kPa | 489.8 ± 1.6 | 0.0382 ± 0.0011
323.16 K, 41249 kPa | 561.2 ± 1.8 | 0.0415 ± 0.0012
323.16 K, 48119 kPa | 624.2 ± 1.9 | 0.0448 ± 0.0013
323.16 K, 54885 kPa | 678.5 ± 1.9 | 0.0481 ± 0.0014
323.16 K, 61690 kPa | 726.2 ± 2.1 | 0.0512 ± 0.0015
323.16 K, 68312 kPa | 767.5 ± 2.2 | 0.0542 ± 0.0016
348.15 K, 6978 kPa | 97.69 ± 0.93 | 0.02904 ± 0.00091
348.15 K, 17496 kPa | 241.15 ± 1.1 | 0.03308 ± 0.00097
348.15 K, 27653 kPa | 368.7 ± 1.4 | 0.0358 ± 0.001
348.15 K, 34469 kPa | 444.9 ± 1.5 | 0.0381 ± 0.0011
348.15 K, 41288 kPa | 513.1 ± 1.6 | 0.0407 ± 0.0012
348.15 K, 48154 kPa | 574.3 ± 1.8 | 0.0434 ± 0.0012
348.15 K, 54879 kPa | 627.8 ± 1.9 | 0.0463 ± 0.0013
348.15 K, 61690 kPa | 676.3 ± 1.9 | 0.049 ± 0.0014
348.15 K, 68529 kPa | 719.8 ± 2 | 0.051 ± 0.0015
398.11 K, 7360 kPa | 88.47 ± 0.8 | 0.0292 ± 0.00091
398.11 K, 13876 kPa | 165.12 ± 0.87 | 0.03138 ± 0.00092
398.11 K, 27719 kPa | 316.2 ± 1.1 | 0.0362 ± 0.001
398.11 K, 34448 kPa | 382.2 ± 1.3 | 0.0386 ± 0.0011
398.11 K, 41294 kPa | 443.6 ± 1.4 | 0.0417 ± 0.0012
398.11 K, 48140 kPa | 499.6 ± 1.6 | 0.0441 ± 0.0013
398.11 K, 54949 kPa | 550.4 ± 1.6 | 0.0466 ± 0.0013
398.11 K, 61785 kPa | 596.9 ± 1.8 | 0.0491 ± 0.0014
423.11 K, 7008 kPa | 79.27 ± 0.74 | 0.03113 ± 0.001
423.11 K, 7272 kPa | 82.13 ± 0.75 | 0.02996 ± 0.00096
423.11 K, 14124 kPa | 157.84 ± 0.84 | 0.03214 ± 0.001
423.11 K, 14381 kPa | 160.69 ± 0.85 | 0.03398 ± 0.001
423.11 K, 21056 kPa | 231.04 ± 0.95 | 0.0342 ± 0.001
423.11 K, 21065 kPa | 231.06 ± 0.95 | 0.0361 ± 0.001
423.11 K, 27779 kPa | 297.59 ± 1.1 | 0.0381 ± 0.0011
423.11 K, 27786 kPa | 297.92 ± 1.1 | 0.0359 ± 0.001
423.11 K, 34529 kPa | 359.8 ± 1.4 | 0.0403 ± 0.0021
423.11 K, 34605 kPa | 361 ± 1.4 | 0.0376 ± 0.0021
423.11 K, 41249 kPa | 417.7 ± 1.3 | 0.0398 ± 0.0011
423.11 K, 48189 kPa | 472.3 ± 1.5 | 0.0418 ± 0.0012
423.11 K, 48197 kPa | 472.3 ± 1.5 | 0.0421 ± 0.0012
423.11 K, 55018 kPa | 521.5 ± 1.6 | 0.0444 ± 0.0013
423.11 K, 61834 kPa | 566.5 ± 1.6 | 0.0467 ± 0.0014
423.11 K, 68620 kPa | 608 ± 1.7 | 0.0493 ± 0.0014
